Earlier results, collected in patent US9161911B2, “Gastric retentive pharmaceutical compositions for treatment and prevention of CNS disorders” (priority 2008, dated 2015).

| Structure (SMILES) | solubility in aqueous media | solubility in water |
| --- | --- | --- |
| NC(Cc1ccc(O)c(O)c1)C(=O)O (single isomer, unassigned; (-)) [Levodopa, (−)-L-alpha-amino-beta-(3,4-dihydroxybenzene) propanoic acid] | poorly soluble | slightly soluble (aqueous solubility (measured at 20° C.) in the range of 2% to 10% by weight) |
| C[C@@](Cc1ccc(O)c(O)c1)(NN)C(=O)O.O [Carbidopa, (−)-L-alpha-hydrazino-alpha-methyl-beta-(3,4-dihydroxybenzene) propanoic acid monohydrate] | poorly soluble | slightly soluble (aqueous solubility (measured at 20° C.) in the range of 2% to 10% by weight) |
